Our source for the Activity values is ChEMBL document CHEMBL1157764, “Conserved high activity binding peptides are involved in adhesion of two detergent-resistant membrane-associated merozoite proteins to red blood cells during invasion” (J Med Chem, 2010).

Where a SMILES comes first, the peptide text is derived from it. [ ]: non-standard residue; d: D form. Ahp(2) = CCCCC[C@H](N)C(=O)O

The species named for the experiment is Homo sapiens. Kind of experiment: Binding affinity to RBC membrane receptor in human RBCs assessed as specific binding activity measured as ratio of specifically bound peptide/added peptide by gamma counter.

Take `CC[C@H](C)[C@H](N)C(=O)N[C@@H](CCCCN)C(=O)N[C@@H](Cc1ccc(O)cc1)C(=O)N[C@H](C(=O)N[C@@H](CCC(=O)O)C(=O)N[C@@H](Cc1ccccc1)C(=O)N[C@@H](Cc1ccccc1)C(=O)N[C@@H](CCC(=O)O)C(=O)N[C@@H](CO)C(=O)N[C@@H](CC(N)=O)C(=O)N[C@@H](Cc1ccc(O)cc1)C(=O)N[C@@H](CC(N)=O)C(=O)N[C@@H](CCCNC(=N)N)C(=O)N[C@@H](CC(C)C)C(=O)N[C@@H](CCCCN)C(=O)N[C@@H](CCCNC(=N)N)C(=O)N[C@@H](CO)C(=O)N[C@@H](Cc1ccccc1)C(=O)N[C@@H](CCC(N)=O)C(=O)N[C@@H](CCCCN)C(=O)O)[C@@H](C)O`: the Activity was less than 2%.

Turning to `CC[C@H](C)[C@H](NC(=O)[C@H](CC(=O)O)NC(=O)[C@H](CC(N)=O)NC(=O)[C@H](CC(N)=O)NC(=O)[C@@H](N)CCC(N)=O)C(=O)N[C@@H](CC(=O)O)C(=O)N[C@@H](Cc1cnc[nH]1)C(=O)N[C@@H](CO)C(=O)N[C@@H](CCC(=O)O)C(=O)N[C@@H](CC(=O)O)C(=O)N[C@@H](CCCCN)C(=O)N[C@@H](CCCCN)C(=O)N[C@@H](CC(C)C)C(=O)N[C@H](C(=O)N[C@@H](CO)C(=O)N[C@@H](CCCNC(=N)N)C(=O)N[C@H](C(=O)N[C@@H](CC(C)C)C(=O)N[C@@H](Cc1ccc(O)cc1)C(=O)N[C@@H](Cc1ccc(O)cc1)C(=O)O)C(C)C)[C@@H](C)CC`, the Activity is less than 2%.

Regarding `CC[C@H](C)[C@H](NC(=O)[C@H](CO)NC(=O)[C@H](CCCCN)NC(=O)[C@@H](N)CC(=O)O)C(=O)N[C@H](C(=O)N[C@@H](Cc1cnc[nH]1)C(=O)N[C@@H](Cc1ccccc1)C(=O)N[C@@H](Cc1ccc(O)cc1)C(=O)N[C@@H](CS)C(=O)N[C@@H](CCC(=O)O)C(=O)N[C@@H](CS)C(=O)N[C@@H](CC(N)=O)C(=O)N[C@H](C(=O)N[C@@H](CC(N)=O)C(=O)N[C@@H](CC(N)=O)C(=O)N[C@@H](CC(N)=O)C(=O)N[C@H](C(=O)N[C@H](C(=O)N[C@@H](CCCCN)C(=O)N[C@H](C(=O)O)C(C)C)[C@@H](C)CC)C(C)C)C(C)C)[C@@H](C)CC` (H-DKSIIHFYCECNVNNNVIKV-OH), the Activity is more than 2%.

For the compound `CC[C@H](C)[C@H](NC(=O)[C@H](Cc1ccc(O)cc1)NC(=O)[C@H](CS)NC(=O)[C@@H]1CCCN1C(=O)[C@H](CC(=O)O)NC(=O)[C@@H](N)CCC(=O)O)C(=O)N[C@@H](CC(N)=O)C(=O)N[C@@H](CC(N)=O)C(=O)N[C@@H](CO)C(=O)N[C@@H](Cc1ccc(O)cc1)C(=O)N[C@H](C(=O)N[C@@H](CO)C(=O)N[C@H](C(=O)N[C@@H](CC(N)=O)C(=O)N[C@H](C(=O)N[C@H](C(=O)N[C@@H](CS)C(=O)N[C@@H](CC(N)=O)C(=O)N[C@@H](CCCCN)C(=O)N[C@@H](CCC(=O)O)C(=O)O)C(C)C)C(C)C)C(C)C)C(C)C` (H-EDPCYINNSYVSVNVVCNKE-OH), the Activity is more than 2%.

Turning to `CC[C@H](C)[C@H](NC(=O)[C@@H](N)CCC(=O)O)C(=O)N[C@@H](CO)C(=O)N[C@@H](CCC(=O)O)C(=O)N[C@@H](CS)C(=O)N[C@H](C(=O)N[C@@H](CCC(=O)O)C(=O)N[C@@H](CO)C(=O)N[C@@H](CCC(=O)O)C(=O)N[C@@H](CCC(N)=O)C(=O)N[C@@H](CC(N)=O)C(=O)N[C@@H](CCC(=O)O)C(=O)N[C@H](C(=O)N[C@@H](CCCCN)C(=O)N[C@H](C(=O)N[C@@H](CO)C(=O)N[C@H](C(=O)N[C@H](C(=O)N[C@@H](CS)C(=O)N[C@@H](CC(C)C)C(=O)N[C@@H](Cc1ccc(O)cc1)C(=O)O)[C@@H](C)O)[C@@H](C)O)[C@@H](C)O)C(C)C)C(C)C` (H-EISECVESEQNEVKTSTTCLY-OH), the Activity was more than 2%.

Consider `CC[C@H](C)[C@H](NC(=O)[C@H](Cc1ccc(O)cc1)NC(=O)[C@H](CCC(=O)O)NC(=O)[C@H](CO)NC(=O)[C@@H](NC(=O)[C@H](CC(=O)O)NC(=O)[C@H](CCCCN)NC(=O)[C@H](CC(C)C)NC(=O)[C@H](CCCCN)NC(=O)[C@@H](NC(=O)[C@H](CCC(=O)O)NC(=O)[C@H](CS)NC(=O)[C@H](Cc1ccccc1)NC(=O)[C@@H]1CCCN1C(=O)[C@H](CO)NC(=O)[C@@H](N)Cc1cnc[nH]1)[C@@H](C)CC)[C@@H](C)CC)C(=O)N[C@@H](CCCNC(=N)N)C(=O)N[C@@H](CCCCN)C(=O)N[C@@H](CCCCN)C(=O)N[C@@H](CS)C(=O)O` (H-HSPFCEIKLKDISEYIRKKC-OH), for which the Activity is more than 2%.

As to `CC[C@H](C)[C@H](N)C(=O)N[C@@H](Cc1cnc[nH]1)C(=O)N[C@@H](CCCCN)C(=O)N[C@@H](CCCNC(=N)N)C(=O)N[C@@H](CS)C(=O)N[C@@H](CC(N)=O)C(=O)N[C@@H](CC(=O)O)C(=O)N[C@@H](CC(=O)O)C(=O)N[C@H](C(=O)N[C@@H](CCC(=O)O)C(=O)N[C@@H](CCCCN)C(=O)N[C@@H](CCCCN)C(=O)N[C@@H](CS)C(=O)N[C@@H](CC(N)=O)C(=O)NCC(=O)N[C@@H](CC(N)=O)C(=O)N[C@@H](CC(N)=O)C(=O)N[C@@H](CCCCN)C(=O)N[C@@H](CS)C(=O)N[C@H](C(=O)N[C@@H](Cc1ccc(O)cc1)C(=O)O)[C@@H](C)CC)[C@@H](C)CC` (H-IHKRCNDDIEKKCNGNNKCIY-OH), the Activity is more than 2%.

In the case of `CC[C@H](C)[C@H](NC(=O)[C@H](CCC(=O)O)NC(=O)[C@H](CC(N)=O)NC(=O)[C@H](CC(N)=O)NC(=O)CNC(=O)[C@H](CC(N)=O)NC(=O)[C@H](CC(C)C)NC(=O)[C@H](CS)NC(=O)[C@H](CCC(N)=O)NC(=O)[C@@H](NC(=O)[C@H](CCC(=O)O)NC(=O)[C@H](CS)NC(=O)[C@H](Cc1cnc[nH]1)NC(=O)[C@H](CC(C)C)NC(=O)[C@@H](NC(=O)[C@H](Cc1ccc(O)cc1)NC(=O)[C@H](CC(C)C)NC(=O)[C@H](CC(N)=O)NC(=O)CNC(=O)[C@@H](N)CCC(N)=O)C(C)C)C(C)C)C(=O)O` (H-QGNLYVLHCEVQCLNGNNEI-OH), the Activity was more than 2%.

As to `CCCCC[C@H](NC(=O)[C@H](Cc1ccc(O)cc1)NC(=O)[C@@H](NC(=O)[C@H](CCCNC(=N)N)NC(=O)[C@H](CCCNC(=N)N)NC(=O)[C@H](CCC(N)=O)NC(=O)[C@@H]1CCCN1C(=O)[C@@H](NC(=O)[C@@H](NC(=O)[C@H](Cc1ccccc1)NC(=O)[C@@H](NC(=O)[C@H](CC(=O)O)NC(=O)[C@H](CC(N)=O)NC(=O)[C@H](CCC(=O)O)NC(=O)CNC(=O)[C@H](Cc1ccccc1)NC(=O)[C@H](CC(C)C)NC(=O)[C@@H](N)Cc1ccc(O)cc1)[C@@H](C)CC)C(C)C)C(C)C)[C@@H](C)CC)C(=O)N[C@H](C(=O)N[C@@H](CCC(=O)O)C(=O)O)[C@@H](C)O` (H-YLFGENDIFVVPQRRIY[Ahp(2)]TE-OH), the Activity is more than 2%.

H-DEKHAENEENVEQIETDSNVY-OH: the Activity is more than 2%.

Consider H-DEVFGSQSSNFNIFDSNNTDY-OH, for which the Activity was more than 2%.

For H-DGLNCFDNVYIKNKTLVKIE-OH, the Activity was more than 2%.

For the compound H-EDGEKENKHKSSETTNETVTY-OH, the Activity is more than 2%.

As to H-EEIGDESTDSSSMEIQDSTSY-OH, the Activity was more than 2%.

In the case of H-EEQENEDSTDAEAIDKEEVEY-OH, the Activity is more than 2%.

On to H-EKKDVKVSGNNNIAVVYSIF-OH, for which the Activity was more than 2%.

As for H-FEVRLPKDIKVTENCFRYSF-OH, the Activity is more than 2%.

In the case of H-GTAMESLLYLNNNNVKKLID-OH, the Activity was more than 2%.

On to H-ILYLEKNNLFNTQASCIKSY-OH, for which the Activity was more than 2%.

On to H-ISLLLNKKYDSFEIKDVLED-OH, for which the Activity is more than 2%.

Turning to H-ITIEELFKSAIKTEEMKDNKY-OH, the Activity was less than 2%.

In the case of H-KETQEKSDQEPSQNIQEDNSY-OH, the Activity was more than 2%.

Consider H-KYILVCENHSQNYINVVDQE-OH, for which the Activity was more than 2%.

As for H-LFETFDPQYLNTEFNGVSHY-OH, the Activity was more than 2%.

Consider H-LGYDNCTIEVNKTVNGIDWN-OH, for which the Activity is more than 2%.

As for H-LNEDLVLLYNDFPFDNGMIS-OH, the Activity is more than 2%.

For the compound H-MAVYNALYEKAQSYNLQKLF-OH, the Activity is more than 2%.

Regarding H-MFAVNLKICIFLSLVSFLLQY-OH, the Activity is more than 2%.

In the case of H-NDSNDFLKKYAIMGNSFDDG-OH, the Activity is more than 2%.

As to H-NEDNKDLEHGSSNDVNNNTDY-OH, the Activity was more than 2%.

As for H-NEQDENVKGMSSSQEMNSNNY-OH, the Activity was more than 2%.

As for H-NKTDNGSSFFFAMSNALLVIY-OH, the Activity was more than 2%.

As for H-NNDDQDEQGNDGDVTSSMNKY-OH, the Activity is more than 2%.

Turning to H-NNEKVVPLSNEPQEIIQPPIY-OH, the Activity is more than 2%.

H-NYKSTYCVLSNNYRIVVEFD-OH: the Activity is more than 2%.

For H-NYYISPFYDENSIKQEINKK-OH, the Activity is more than 2%.

With H-QEKLNTTDPSKAYIYGANII-OH, the Activity was more than 2%.

Turning to H-QNNEQEQPKQDDQLLNNNNDY-OH, the Activity was more than 2%.

Regarding H-RYNEMKRDANPDVYYIYLMD-OH, the Activity is more than 2%.

As to H-SDIFFKYNPSENIMDHQEMV-OH, the Activity is more than 2%.

As to H-SEEANDENKDNMQTTTDEGTY-OH, the Activity is more than 2%.

Turning to H-SKINKELAHRTALFNKLADNY-OH, the Activity was more than 2%.

In the case of H-SPNYELSLNSLSDSQNVDIF-OH, the Activity is more than 2%.

In the case of H-TEEKGKDEQKKDEQKEQDEEY-OH, the Activity was more than 2%.

As for H-TLDIEKIEDINLEEVKMSLLY-OH, the Activity is more than 2%.

Take H-TLVNNKENKEFVLKEKSSLTY-OH: the Activity is more than 2%.

Regarding H-TNTTPAVYSGSLLSMNNDFE-OH, the Activity was more than 2%.

As for H-TSEEKMILIFKCDNKFYITK-OH, the Activity is more than 2%.

Consider H-TYHLAIVKNEDKLQLAFTYD-OH, for which the Activity is more than 2%.

H-VHFMAGGQKYKYEGIDLTDS-OH: the Activity is more than 2%.

Consider H-VSKFDNNKTIGFVCPVKSSY-OH, for which the Activity was more than 2%.

H-YGKEFKWSDPKVIDVSNVIG-OH: the Activity was more than 2%.

For H-YMREIRLLGKCMLSFDEGNN-OH, the Activity was more than 2%.
